Data taken from ChEMBL document CHEMBL3885881, “DrugMatrix”.

Species on record: Rattus norvegicus
Assay: DrugMatrix - Regimen: Daily Repeat
Format: toxicity, organism-based, Sprague-Dawley
Set-up: regimen Daily Repeat, gender Male, age 6-8 weeks
Settings: in vivo, po, 740 mg/kg, route oral GAVAGE, dose level High, vehicle .5 % CMC; for ABSOLUTE BASOPHIL / ABSOLUTE EOSINOPHIL / ABSOLUTE LYMPHOCYTE / ABSOLUTE MONOCYTE / ABSOLUTE SEGMENTED NEUTROPHIL / BASOPHIL / EOSINOPHIL / ERYTHROCYTE COUNT / HEMATOCRIT / HEMOGLOBIN / LEUKOCYTE COUNT / LYMPHOCYTE / MEAN CORPUSCULAR HEMOGLOBIN / MEAN CORPUSCULAR HEMOGLOBIN CONCENTRATION / MEAN CORPUSCULAR VOLUME / MONOCYTE / NEUTROPHIL / NUCLEATED RED BLOOD CELLS / PLATELET COUNT: tissue Blood; for ALANINE AMINOTRANSFERASE / ALBUMIN / ALKALINE PHOSPHATASE / ASPARTATE AMINOTRANSFERASE / BLOOD UREA NITROGEN / CARBON DIOXIDE / CHLORIDE / CHOLESTEROL / CREATININE / GLUCOSE / LACTATE DEHYDROGENASE / LIPASE / PHOSPHORUS / POTASSIUM / SODIUM / TOTAL BILIRUBIN / TOTAL PROTEIN / URIC ACID: tissue Plasma

## COc1ccccc1[N+](=O)[O-] [2-NITROANISOLE]
72 h, time 3 day
  ABSOLUTE BASOPHIL: 0 CELLS/uL
  ABSOLUTE EOSINOPHIL: 109.33 CELLS/uL
  ABSOLUTE LYMPHOCYTE: 13522 CELLS/uL
  ABSOLUTE MONOCYTE: 1089.33 CELLS/uL
  ABSOLUTE SEGMENTED NEUTROPHIL: 2512.67 CELLS/uL
  BASOPHIL: 0%
  EOSINOPHIL: 0.67%
  ERYTHROCYTE COUNT: 5.38 x10E6/uL
  HEMATOCRIT: 32.17%
  HEMOGLOBIN: 11.9 G/DL
  LEUKOCYTE COUNT: 17.23 x10E3/uL
  LYMPHOCYTE: 78.67%
  MEAN CORPUSCULAR HEMOGLOBIN: 22.1 pg
  MEAN CORPUSCULAR HEMOGLOBIN CONCENTRATION: 37 G/DL
  MEAN CORPUSCULAR VOLUME: 59.83 fL
  MONOCYTE: 6.33%
  NEUTROPHIL: 14.33%
  NUCLEATED RED BLOOD CELLS: 0 /100WBC
  PLATELET COUNT: 1241.67 x10E3/uL
  ALANINE AMINOTRANSFERASE: 84.67 u/L
  ALBUMIN: 4.37 G/DL
  ALKALINE PHOSPHATASE: 448.33 u/L
  ASPARTATE AMINOTRANSFERASE: 103.67 u/L
  BLOOD UREA NITROGEN: 14 mg/dL
  CARBON DIOXIDE: 22.67 mmol/L
  CHLORIDE: 101.67 MEQ/L
  CHOLESTEROL: 95.67 mg/dL
  CREATININE: 0.18 mg/dL
  GLUCOSE: 145 mg/dL
  LACTATE DEHYDROGENASE: 412.67 u/L
  LIPASE: 9.33 u/L
  PHOSPHORUS: 11.6 mg/dL
  POTASSIUM: 6.07 MEQ/L
  SODIUM: 142.23 MEQ/L
  TOTAL BILIRUBIN: 0.23 mg/dL
  TOTAL PROTEIN: 5.93 G/DL
  URIC ACID: 1.7 mg/dL
120 h, time 5 day
  ABSOLUTE BASOPHIL: 0 CELLS/uL
  ABSOLUTE EOSINOPHIL: 0 CELLS/uL
  ABSOLUTE LYMPHOCYTE: 12322.33 CELLS/uL
  ABSOLUTE MONOCYTE: 57 CELLS/uL
  ABSOLUTE SEGMENTED NEUTROPHIL: 3254 CELLS/uL
  BASOPHIL: 0%
  EOSINOPHIL: 0%
  ERYTHROCYTE COUNT: 5.04 x10E6/uL
  HEMATOCRIT: 30.5%
  HEMOGLOBIN: 10.83 G/DL
  LEUKOCYTE COUNT: 15.63 x10E3/uL
  LYMPHOCYTE: 79%
  MEAN CORPUSCULAR HEMOGLOBIN: 21.5 pg
  MEAN CORPUSCULAR HEMOGLOBIN CONCENTRATION: 35.5 G/DL
  MEAN CORPUSCULAR VOLUME: 60.6 fL
  MONOCYTE: 0.33%
  NEUTROPHIL: 20.67%
  NUCLEATED RED BLOOD CELLS: 1 /100WBC
  PLATELET COUNT: 1041 x10E3/uL
  ALANINE AMINOTRANSFERASE: 76.67 u/L
  ALBUMIN: 4.67 G/DL
  ALKALINE PHOSPHATASE: 401.67 u/L
  ASPARTATE AMINOTRANSFERASE: 101 u/L
  BLOOD UREA NITROGEN: 14.33 mg/dL
  CARBON DIOXIDE: 33 mmol/L
  CHLORIDE: 98.33 MEQ/L
  CHOLESTEROL: 92.33 mg/dL
  CREATININE: 0.15 mg/dL
  GLUCOSE: 127 mg/dL
  LACTATE DEHYDROGENASE: 114.33 u/L
  LIPASE: 9.67 u/L
  PHOSPHORUS: 12.23 mg/dL
  POTASSIUM: 6 MEQ/L
  SODIUM: 144.43 MEQ/L
  TOTAL BILIRUBIN: 0.23 mg/dL
  TOTAL PROTEIN: 6.53 G/DL
  URIC ACID: 0.9 mg/dL
[…], time 14 day
  ABSOLUTE BASOPHIL: 0 CELLS/uL
  ABSOLUTE EOSINOPHIL: 157.6 CELLS/uL
  ABSOLUTE LYMPHOCYTE: 18755.2 CELLS/uL
  ABSOLUTE MONOCYTE: 504.8 CELLS/uL
  ABSOLUTE SEGMENTED NEUTROPHIL: 3782.4 CELLS/uL
  BASOPHIL: 0%
  EOSINOPHIL: 0.8%
  ERYTHROCYTE COUNT: 4.9 x10E6/uL
  HEMATOCRIT: 34.42%
  HEMOGLOBIN: 12.78 G/DL
  LEUKOCYTE COUNT: 23.2 x10E3/uL
  LYMPHOCYTE: 80.8%
  MEAN CORPUSCULAR HEMOGLOBIN: 26.14 pg
  MEAN CORPUSCULAR HEMOGLOBIN CONCENTRATION: 37.14 G/DL
  MEAN CORPUSCULAR VOLUME: 70.28 fL
  MONOCYTE: 2.2%
  NEUTROPHIL: 16.2%
  NUCLEATED RED BLOOD CELLS: 0 /100WBC
  PLATELET COUNT: 1231 x10E3/uL
  ALANINE AMINOTRANSFERASE: 73.4 u/L
  ALBUMIN: 4.84 G/DL
  ALKALINE PHOSPHATASE: 271.2 u/L
  ASPARTATE AMINOTRANSFERASE: 85.6 u/L
  BLOOD UREA NITROGEN: 17 mg/dL
  CARBON DIOXIDE: 31.6 mmol/L
  CHLORIDE: 99.2 MEQ/L
  CHOLESTEROL: 77 mg/dL
  CREATININE: 0.21 mg/dL
  GLUCOSE: 125 mg/dL
  LACTATE DEHYDROGENASE: 356.6 u/L
  LIPASE: 9 u/L
  PHOSPHORUS: 11.68 mg/dL
  POTASSIUM: 6.84 MEQ/L
  SODIUM: 142.78 MEQ/L
  TOTAL BILIRUBIN: 0.28 mg/dL
  TOTAL PROTEIN: 6.82 G/DL
  URIC ACID: 1.6 mg/dL
